According to BigSolDB 2.1:

O=[N+]([O-])c1ccc(S(=O)(=O)[O-])cc1.[Na+]
solubility (mole fraction)
Conditions	283.15 K	288.15 K	293.15 K	298.15 K	303.15 K	308.15 K	313.15 K	318.15 K	323.15 K
in THF	0.000109	0.000112	0.000117	0.000122	0.000127	0.000132	0.000138	0.000145	0.000156
in acetone	0.012	0.014	0.0161	0.0182	0.0206	0.0229	0.0258	0.029	0.0323
in cyclohexanone	0.000906	0.000913	0.000917	0.000927	0.000938	0.000954	0.000967	0.000991	0.00101
in ethanol	0.00104	0.00118	0.00133	0.00147	0.00164	0.0018	0.00204	0.00232	0.0026
in ethyl acetate	8.84e-05	9.96e-05	0.000109	0.00012	0.000131	0.000143	0.000157	0.000175	0.000193
in n-butanol	0.000318	0.000405	0.000498	0.000597	0.000699	0.000798	0.000947	0.00111	0.00131
